Columns and labels:
KCa2.3 channel [1] = assay: KCa2.3 channel protein expression in hepatic stellate cells (western blotting); type: cell-based, human; conditions: exposure for 24 hours
Procedure: (§1) Fibroblasts (CRL-2795; American Type Culture Collection, VA) were cultured in a Dulbecco's Modified Eagle Medium (Hyclone, Logan, Utah), human uterine microvascular endothelial cells (PromoCell GmbH, Heidelberg, Germany) were cultured in an MV2 medium (PromoCell GmbH), and human hepatic stellate cells (Innoprot, Bizkia, Spain) were cultured in a P60126 medium (Innoprot).
(§2) All cells were maintained under a 5% humidified carbon dioxide condition at 37° C. The cultured cells were exposed to each of PDGF, TGFβ, and the compounds of Formulas A1 to A9 (CBM-N1 N9) for 24 hours, followed by performing experiments.
(§3) Cells were lysed with a protein extraction buffer solution, a protein concentration in a supernatant was determined by Bradford analysis, and […] of the protein was loaded on an SDS-PAGE gel and then transferred to a nitrocellulose membrane. The nitrocellulose membrane was blocked with 5% BSA-containing TEST (10 mM Tris-HCl, 150 mM NaCl, and 0.1% (v/v) Tween-20, pH 7.6) at room temperature for 1 hour. Blots were incubated overnight with primary antibodies, and then incubated with horseradish peroxidase-conjugated secondary antibodies for 1 hour. Bands were visualized by chemiluminescence. Data collection and processing were performed using an image analyzer (LAS-3000) and IMAGE GAUSE software (Fuji film, Japan).

KCa2.3 channel [2] = assay: KCa2.3 channel expression in vascular endothelial cells (real-time PCR, western blotting); type: cell-based, human
Procedure: as §1, §2
The mRNA expression levels of inflammation or fibrosis factors in extracted liver tissue were measured by real-time PCR. RNA of the liver tissue was isolated with a TRIzol reagent (Molecular Research Center, Cincinnati, Ohio), and single-stranded cDNA was synthesized using BcaBEST polymerase (TakaraShuzo), followed by a polymerase chain reaction.
Cells were lysed with a protein extraction buffer solution, a protein concentration in a supernatant was determined by Bradford analysis, and […] of the protein was loaded on an SDS-PAGE gel and then transferred to a nitrocellulose membrane. The nitrocellulose membrane was blocked with 5% BSA-containing TEST (10 mM Tris-HCl, 150 mM NaCl, and 0.1% (v/v) Tween-20, pH 7.6) at room temperature for 1 hour. […]

[3] = test system: western diet-induced liver disease mouse models; assay: Western diet-induced liver disease mouse model; type: in vivo; conditions: western diet mice
Procedure: (§4) To confirm the effects of the compounds of Formula A1 to A5 (CBM-N1˜N5) according to the present invention on liver inflammation and fibrosis, subsequent experiments were performed on […] wild-type mouse (purchased from Orient Bio). First, to induce liver disease in mice, thioacetamide (TAA) were administered to the mice (Experiment A), or the mice were raised on a western diet inducing fatty liver disease (Experiment B). The mice were divided into a normal control, a disease-induced group, and a drug-administered group, and among these three groups, […] were used in each group for Experiment A, and 10 mice were used in each group for Experiment B. A drug treatment method for the mice in each group is as follows:
(§5) (1) Normal control: The normal control in Experiment A was intraperitoneally injected three times a week with the same amount of TAA solvent used when TAA was injected into a disease-induced group, and the normal control in Experiment B was raised on a normal diet. In both of the Experiments A and B, a CM/1-N1 solvent was injected using an oral tube at the same amount as that of CBM-N1 injection five times a week. The TAA solvent was distilled water, the CBM-N1 solvent and a derivative thereof were a 1:1 mixture of DMSO and distilled water. In the accompanying drawings, C or Control refers to a normal control.
(2) Disease-induced group: The disease-induced group in the Experiment A was intraperitoneally injected with TAA at 100 mg/kg three times a week, the disease-induced group in the Experiment B was raised on a western diet (WD, 45% saturated fat, […], and water containing fructose and glucose). […]
Aspartic acid aminotransferase (AST, GOT) and alanine aminotransferase (ALT, GPT), total bilirubin and albumin concentrations were measured using blood collected from liver disease mouse models.
The mRNA expression levels of inflammation or fibrosis factors in extracted liver tissue were measured by real-time PCR. […]

fibroblasts = assay: MTT cell proliferation in fibroblasts exposed to TGFβ or PDGF; type: cell-based; conditions: for TGFβ or PDGF-induced cell proliferation: fibroblasts, TGFβ (5 ng/ml) or PDGF (20 ng/ml), 24 hours
Procedure: as §1, §2
Cells were seeded in 96-well plates at 2×10^4 cells/well, and then exposed to TGFB, which promotes cell proliferation, for 24 hours. In addition, 0.1 mg of MTT was added to each well, followed by exposure for 4 hours at 37° C. Afterward, the culture medium was removed, the cells were lysed with dimethyl sulfoxide, and then absorbance was measured at 590 nm using the following devices.

KCa2.3 channel [4] = assay: KCa2.3 channel protein expression in fibroblasts (western blotting); type: cell-based
Procedure: as §1, §2, §3

[5] = test system: fibrosis markers (α-SMA, collagen 1α, collagen 3α) in fibroblasts; assay: Expression of fibrosis markers in fibroblasts exposed to TGFβ (western blotting); type: cell-based; conditions: fibroblasts exposed to TGFβ (5 ng/ml) + compound for 24 hours
Procedure: as §1, §2, §3

[6] = test system: TAA-induced liver disease mouse models; assay: TAA-induced liver disease mouse model; type: in vivo; conditions: TAA mice; for ALT levels / AST blood levels: blood, mean±S.E.M
Procedure: as §4, §5
(2) Disease-induced group: The disease-induced group in the Experiment A was intraperitoneally injected with TAA at 100 mg/kg three times a week, the disease-induced group in the Experiment B was raised on a western diet (WD, 45% saturated fat, […], and water containing fructose and glucose). All CBM-N1 solvents in the Experiments A and B were administered using an oral tube at the same amount as that of CBM-N1 administration five times a week. In the accompanying drawings, TAA refers to a group in which a disease is induced by TAA, and \VD refers to a group in which a disease is induced by a western diet.
(3) Drug-administered group: In the Experiment A, the compounds of Formulas 1 to 5 (50 mg/kg/day, 5 times/week e administered with TAA (100 mg/kg, 3 times/week), and in the Experiment B, CBM-N1 to N5 (50 mg/kg/day, 5 times/week) were administered with a western diet. The mice treated by the above-described method for 16 weeks were instantly killed by excessively administering an anesthetic, and then the livers and blood were extracted. In the accompanying drawings, TAA+CBM-Ni, TAA+CBM-N2, TAA+CBM-N3, TAA+CBM-N4 and TAA+CBM-N5 refer to disease-induced groups to which the compounds of Formulas A1 to A5 were administered, respectively.
(§6) To histologically confirm the therapeutic effect of the compound of Formula A1 (CBM-N1) or the compound of Formula A9 (CBM-N9) in each mouse model, a paraffin tissue sample was prepared. Liver and lung tissues were fixed with a paraformaldehyde solution, and sliced to a thickness of 1 to 2 mm. The sectioned tissues were embedded in paraffin, sliced to a thickness of 4 μm to remove paraffin with xylene, and the xylene was removed with ethanol, followed by washing with tap water. The resulting tissues were subjected to hematoxylin and eosin staining (H&E staining) or immunohistochemistry.
(1) H&E staining: Nuclei were first stained (blue) with a Harris hematoxylin staining solution for 5 minutes, and counter-stained (pink) with an eosin solution.
(2) Immunohistochemistry for inflammation markers: Inflammation markers (CD82 and CD45) were stained with specific antibodies, and lymphoid cells were stained brown.
(3) Immunohistochemistry for fibrosis markers: Collagen was stained by Masson's trichrome staining, or reticulin fibers were stained by reticulin staining.
Aspartic acid aminotransferase (AST, GOT) and alanine aminotransferase (ALT, GPT), total bilirubin and albumin concentrations were measured using blood collected from liver disease mouse models. […]

KCa2.3 channel [7] = assay: KCa2.3 current in hepatic stellate cells (whole-cell patch-clamp); type: cell-based, human; conditions: membrane potential of 1-50 mV, exposure for 24 hours
Procedure: as §1, §2
A whole cell current through a cell membrane in the isolated and cultured single cells was measured using a patch-clamp technique. […]
A standard external solution contained 150 mM NaCl, 6 mM KCl, 1.5 mM CaCl2), 1 mM MgCl2, 10 mM HEPES and 10 mM glucose at pH 7.4 (titrated NaOH), and a micro glass electrode (pipette) solution contained 40 mM KCl, 100 mM K-aspartate, 2 mM MgCl2, 0.1 mM EGTA, 4 mM Na2ATP and 10 mM HEPES at pH 7.2 (titrated with KOH). A free Ca^2+ concentration in the pipette solution was adjusted to 1 μM by adding an appropriate amount of Ca^2+ in the presence of 5 mM EGTA (calculated with CaBuf; Droogmans, Leuven, Belgium), […]

[8] = test system: bleomycin-induced pulmonary fibrosis mouse models; assay: Bleomycin-induced pulmonary inflammation and fibrosis mouse model; type: in vivo; conditions: lung tissue, bleomycin mice
Procedure: To confirm the effect of the compound of Formula A9 (CBM-N9) on pulmonary inflammation and fibrosis caused by bleomycin, the following experiments were performed on C57BL/6 wild-type mice. First, the mice were divided into a normal control, a disease-induced group, and a drug-administered group, and ten mice were included in each of the three groups. A drug treatment method for the mice in each group is as follows:
(1) Normal control: The same amount of distilled water as used when the bleomycin was applied in the disease-induced group was instilled intratracheally. In addition, a CBM-N9 solvent was intraperitoneally injected at the same amount used when CBM-N9 was administered to the disease-induced group to be described below five times a week.
(2) Disease-induced group: 1.5 units of bleomycin was instilled intratracheally. In addition, a CBM-N9 solvent was intraperitoneally injected at the same amount used in CBM-N9 administration five times a week.
(3) Drug-administered group: 1.5 units of bleomycin was intratracheally instilled. In addition, CBM-N9 (50 mg/kg) was injected intraperitoneally five times a week.
The mice treated with the drug for 4 weeks in the same manner as described above were instantly killed by excessively administering an anesthetic, and then the lungs were extracted.
as §6, with “The resulting tissues were subjected to hematoxylin and eosin staining (H&E staining) or immunohistochemistry.” left out
Cells were lysed with a protein extraction buffer solution, a protein concentration in a supernatant was determined by Bradford analysis, and […] of the protein was loaded on an SDS-PAGE gel and then transferred to a nitrocellulose membrane. […]

KCa3.1 channel = KCa3.1 channel expression in vascular endothelial cells; type: cell-based, human; conditions: PDGF treatment, 24 hours
Sequence of KCa3.1 channel (O15554 whole entry): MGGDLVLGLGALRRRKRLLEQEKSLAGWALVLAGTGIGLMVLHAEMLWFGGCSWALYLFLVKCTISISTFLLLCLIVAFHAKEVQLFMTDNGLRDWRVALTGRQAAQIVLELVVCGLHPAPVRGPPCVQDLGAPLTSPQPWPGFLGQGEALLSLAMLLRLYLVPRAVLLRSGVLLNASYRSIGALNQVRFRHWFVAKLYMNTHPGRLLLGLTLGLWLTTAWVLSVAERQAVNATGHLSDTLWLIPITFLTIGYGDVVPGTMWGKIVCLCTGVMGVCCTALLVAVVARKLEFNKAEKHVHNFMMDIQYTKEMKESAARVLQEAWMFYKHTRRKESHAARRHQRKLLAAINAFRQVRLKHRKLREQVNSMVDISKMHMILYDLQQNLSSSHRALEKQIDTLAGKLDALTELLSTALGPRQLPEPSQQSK
Procedure: as §1, §2, §3

[9] = blood, 50 mg/kg/day, 16 weeks, mean±S.E.M
[10] = liver tissue, versus disease-induced group

Row | Compound | expression of the KCa2.3 channel protein (KCa2.3 channel [1]) | ALT levels ([6]; 50 mg/kg/day, 16 weeks) [units/L] | AST blood levels ([6]; 50 mg/kg/day, 16 weeks) [units/L] | mRNA level of inflammation factors (inflammatory cytokines TNFα, CCL2, IL12, TGF, IL1α, IL6, MIP-2) [6, 10] | further results
1 | NC(=O)C[S+]([O-])C(c1ccccc1)c1ccccc1 (stereo not shown) [CBM-N1, 2-(benzhydrylsulfinyl)acetamide] | reduced in hepatic stellate cells in a concentration-dependent manner | 70.3±14.7 | 62.7±11.6 | decreased | expression of the KCa2.3 channel protein (KCa2.3 channel [2]; vascular endothelial cells with KCa2.3 expression increased with PDGF, treated for 24 hours): significantly decreased; ALT levels [3, 9]: 87.2±24.7 units/L; AST blood levels [3, 9]: 71.4±19.8 units/L; mRNA expression levels of inflammatory cytokines CCL2, IL6 and IL1α [3, 10]: decreased; cell proliferation (fibroblasts; fibroblasts exposed to TGFβ (5 ng/ml) + compound for 24 hours): inhibited; expression level of the KCa2.3 channel protein (KCa2.3 channel [4]): reduced; expression levels of the fibrosis markers (α-SMA, collagen 1α, collagen 3α proteins) [5]: reduced; number of inflammation cells (H&E staining of liver tissue) ([6]; 50 mg/kg/day, 16 weeks, versus disease-induced group): significantly decreased; mRNA expression levels of fibrosis markers (Col1α, Col3α, Col4α, α-SMA, TGFR2) ([6]; liver tissue): decreased
2 | O=C(CSC(c1ccccc1)c1ccccc1)NCC1CCCO1 (stereo not shown) [CBM-N2, 2-(benzhydrylthio)-N-[(tetrahydrofuran-2-yl)methyl]acetamide] | significantly reduced | 113.4±7.9 | 83.6±14.8 | decreased | 
3 | O=C(CSC(c1ccccc1)c1ccccc1)Nc1ccccc1 [CBM-N3, 2-(benzhydrylthio)-N-phenylacetamide] |  | 103.0±6.9 | 73.4±7.4 | decreased | 
4 | CNC(=O)C[S+]([O-])C(c1ccccc1)c1ccccc1 (stereo not shown) [CBM-N4, 2-(benzhydrylsulfinyl)-N-methylacetamide] |  | 114.1±8.8 | 66.6±9.4 | decreased | 
5 | O=C(C[S+]([O-])C(c1ccccc1)c1ccccc1)NCC1CCCO1 (stereo not shown) [CBM-N5, 2-(benzhydrylsulfinyl)-N-[(tetrahydrofuran-2-yl)methyl]acetamide] | significantly reduced | 106.4±12.8 | 67.7±10.2 | decreased | 
6 | NC(=O)C[S+]([O-])C(c1cccc(F)c1)c1cccc(F)c1 (stereo not shown) [CBM-N8, 2-[bis(3-fluorophenyl)methanesulfinyl]acetamide] | significantly reduced |  |  |  | TGFβ or PDGF-induced cell proliferation (fibroblasts): significantly reduced
7 | NC(=O)C[S+]([O-])C(c1ccc(F)cc1)c1ccc(F)cc1 (stereo not shown) [CBM-N9, 2-[bis(4-fluorophenyl)methanesulfinyl]acetamide] | significantly reduced |  |  |  | TGFβ or PDGF-induced cell proliferation (fibroblasts): significantly reduced; KCa2.3 current densities versus cells not exposed (KCa2.3 channel [7]): significantly decreased; degrees of inflammation and fibrosis (H&E, CD45 immunohistochemistry, Masson's trichrome) ([8]; 50 mg/kg intraperitoneally five times a week, 4 weeks, versus disease-induced group): decreased; protein expression levels of inflammation markers TIMP-2 and CCR2 ([8]; FIG. 13A): greatly decreased; expression of fibrosis marker proteins (printed: protein expression levels of TIMP-2 and, CCR2) ([8]; FIG. 13B): greatly decreased
8 | PDGF |  |  |  |  | expression of the KCa3.1 channel (KCa3.1 channel): did not increase; expression of the mRNA and protein of the KCa2.3 channel (KCa2.3 channel [2]; vascular endothelial cells exposed to PDGF (20 ng/ml) or TGF (5 ng/ml) for 24 hours): increased
